Source: ChEMBL document CHEMBL1125988, “Restricted rotation analogs of decarboxylated S-adenosylmethionine as inhibitors of polyamine biosynthesis” (Bioorg Med Chem Lett, 1991)

Assays:
L1210 [1] = assay: S-adenosyl-methionine decarboxylase activity was measured by the enzymatic decarboxylation of L-[14C-COOH]-methionine as nmol CO2 produced per hour per mg of protein in L1210 cells; format: functional, Mus musculus
L1210 [2] = assay: Tested for inhibitory activity on cultured L1210 cells; format: functional, cell-based; details: Mus musculus
L1210 [3] = assay: Cellular polyamine (spermine) content was determined in L1210 cells.; format: functional, Mus musculus
L1210 [4] = assay: Cellular polyamine (SPD) content was determined in L1210 cells.; format: functional, Mus musculus
[5] = Lethal dose of compound towards active site probes for spermidine and spermine synthase in L1210 cultured cell assay,; format: toxicity, cell-based; details: mouse, L1210 cells; read-out: LD50 (the source's name)
L1210 [6] = assay: Cellular polyamine (putrescine) content was determined in L1210 cells.; format: functional, Mus musculus
L1210 [7] = assay: Ornithine decarboxylase activity was measured by the enzymatic decarboxylation of L-[14C-COOH]-ornithine as nmol CO2 produced per hour per mg of protein in L1210 cells; format: functional, Mus musculus
L1210 [8] = assay: Compound was evaluated for % of growth control in cultured L1210 cells; format: functional, Mus musculus

| Compound | Activity (L1210 [1]) | IC50 (L1210 [2]) [µM] | Cellular content (L1210 [3]) | Cellular content (L1210 [4]) | CC50 [5] [µM] | Cellular content (L1210 [6]) | Activity (L1210 [7]) | Growth (L1210 [8]) [%] |
| --- | --- | --- | --- | --- | --- | --- | --- | --- |
| Nc1ncnc2c1ncn2[C@@H]1O[C@H](CSC2CCNC2)[C@@H](O)[C@H]1O (stereo partly specified) | 367 (nM of CO2) hr-1 mg-1 | 100 | 1000 pM (10e6*cells)-1 | 410 pM (10e6*cells)-1 | 100 | 37 pM (10e6*cells)-1 | 2.98 (nM of CO2) hr-1 mg-1 | 46 |
| Br.C[S+](C[C@H]1O[C@@H](n2cnc3c(N)ncnc32)[C@H](O)[C@@H]1O)C1CCNC1.[Br-] (stereo partly specified) | 500 (nM of CO2) hr-1 mg-1 | 1000 | 1290 pM (10e6*cells)-1 | 208 pM (10e6*cells)-1 | 1000 | 170 pM (10e6*cells)-1 | 6.16 (nM of CO2) hr-1 mg-1 | 58 |
